The source of these data is US20200239530A1, “COMPOUNDS AND METHODS OF MODULATING PROTEIN DEGRADATION” (Vividion Therapeutics, Inc., priority 2017, published 2020).

Holding throughout (assay): Cysteine liganding, probe competition
Common to all, as to type: binding

Experiment [1] concerns the target T1, BACH1 Transcription regulator protein BACH1 (Homo sapiens, UniProt O14867).
T1 construct: Cells were resuspended in cold PBS on ice and sonicated with a probe sonicator to achieve lysis; endogenous in cells
T1 sequence (O14867 1-736): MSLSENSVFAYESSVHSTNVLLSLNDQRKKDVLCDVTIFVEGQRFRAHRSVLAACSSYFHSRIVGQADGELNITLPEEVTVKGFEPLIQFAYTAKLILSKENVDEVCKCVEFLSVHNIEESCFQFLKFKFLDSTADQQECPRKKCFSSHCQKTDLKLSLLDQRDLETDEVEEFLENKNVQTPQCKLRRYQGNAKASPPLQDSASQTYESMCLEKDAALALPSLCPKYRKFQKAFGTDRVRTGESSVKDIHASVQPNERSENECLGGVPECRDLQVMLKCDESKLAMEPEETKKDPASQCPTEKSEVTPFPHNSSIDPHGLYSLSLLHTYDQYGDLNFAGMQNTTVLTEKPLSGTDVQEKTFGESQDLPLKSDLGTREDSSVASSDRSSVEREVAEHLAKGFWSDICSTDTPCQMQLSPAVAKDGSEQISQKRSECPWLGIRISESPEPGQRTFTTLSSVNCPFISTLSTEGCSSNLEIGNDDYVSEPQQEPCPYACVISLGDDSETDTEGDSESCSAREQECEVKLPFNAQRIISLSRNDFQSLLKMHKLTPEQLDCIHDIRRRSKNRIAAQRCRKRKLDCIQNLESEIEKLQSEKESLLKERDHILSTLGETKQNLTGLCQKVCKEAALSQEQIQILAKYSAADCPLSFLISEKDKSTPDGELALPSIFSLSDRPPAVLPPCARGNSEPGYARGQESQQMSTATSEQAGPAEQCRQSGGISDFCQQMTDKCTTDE
The settings on record: for Liganded: BACH1 Res# 224, uniprot O14867. In a few lines: (§1)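 Read-out is loss of desthiobiotin iodoacetamide labelling at cysteines, measured on streptavidin-enriched tryptic peptides. Compound preincubation ran 1 hr at 25° C in PBS lysate holding 5 mg/ml proteome before the probe was added.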

Experiment [2] concerns the target T2, MAPK8 Mitogen-activated protein kinase 8 (Homo sapiens, UniProt P45983).
T2 construct: Cells were resuspended in cold PBS on ice and sonicated with a probe sonicator to achieve lysis; endogenous in cells
The settings on record: for 100 Max / 100 ave / 500 ave / 500 Max: uniprot P45983; for 500 Max: in % (unit assumed). Summed up:
as §1

For experiment [3], the target named is T3, NOP56 Nucleolar protein 56 (Homo sapiens, UniProt O00567).
T3 construct: Cells were resuspended in cold PBS on ice and sonicated with a probe sonicator to achieve lysis; endogenous in cells
T3 sequence (O00567 1-594): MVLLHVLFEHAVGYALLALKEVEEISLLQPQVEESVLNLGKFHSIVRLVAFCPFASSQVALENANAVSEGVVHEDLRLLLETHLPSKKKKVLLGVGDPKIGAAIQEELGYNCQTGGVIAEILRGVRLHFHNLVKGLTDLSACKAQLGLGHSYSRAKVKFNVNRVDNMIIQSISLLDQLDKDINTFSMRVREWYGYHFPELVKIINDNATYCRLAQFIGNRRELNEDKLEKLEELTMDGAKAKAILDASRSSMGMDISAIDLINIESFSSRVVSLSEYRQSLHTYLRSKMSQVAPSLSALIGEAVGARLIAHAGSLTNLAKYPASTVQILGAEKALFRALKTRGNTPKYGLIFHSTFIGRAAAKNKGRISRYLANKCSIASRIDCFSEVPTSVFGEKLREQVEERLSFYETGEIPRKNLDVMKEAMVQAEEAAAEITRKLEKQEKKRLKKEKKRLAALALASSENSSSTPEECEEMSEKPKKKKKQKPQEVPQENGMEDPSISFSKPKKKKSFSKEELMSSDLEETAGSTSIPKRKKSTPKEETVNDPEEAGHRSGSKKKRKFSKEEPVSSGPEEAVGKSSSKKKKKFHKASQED
Summed up:
as §1

Setting [4] is: uniprot O00567, in % (unit assumed).

T2 sequence (P45983 whole entry): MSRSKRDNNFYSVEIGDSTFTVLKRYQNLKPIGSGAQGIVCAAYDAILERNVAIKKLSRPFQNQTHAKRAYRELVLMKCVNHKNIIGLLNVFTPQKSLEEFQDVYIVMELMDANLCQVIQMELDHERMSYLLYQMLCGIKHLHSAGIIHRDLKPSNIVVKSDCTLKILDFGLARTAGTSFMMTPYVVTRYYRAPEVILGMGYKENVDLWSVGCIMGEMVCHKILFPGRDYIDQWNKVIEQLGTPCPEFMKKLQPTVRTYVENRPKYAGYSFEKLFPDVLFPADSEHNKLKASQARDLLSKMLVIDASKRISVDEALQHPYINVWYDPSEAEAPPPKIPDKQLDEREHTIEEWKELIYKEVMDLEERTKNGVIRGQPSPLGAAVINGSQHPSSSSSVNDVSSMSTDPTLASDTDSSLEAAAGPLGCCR

Turning to `COc1ccc2c(c1)CCCN2C(=O)CCl` [KB02], the Liganded result in experiment [1] was “YES”. Further, in experiment [2] (MAPK8 Res# 245, uniprot P45983), the Liganded result is on record as “YES”. Moreover, in experiment [2], the “100 Max” value is given as 44.42, the 100 ave was determined as 26.11, the 500 ave turned out to be 76.89 and the “500 Max” value was determined as 78.63. In addition, the Liganded result in experiment [3] (NOP56 Res# 211, uniprot O00567) was “YES”.

With `O=C(CCl)Nc1cc(C(F)(F)F)cc(C(F)(F)F)c1` [KBO3], the Liganded entry in experiment [1] is given as “YES”. For the same compound, the “100 Max” value in experiment [1] (uniprot O14867) was 53.8; in experiment [2], 17.22; in experiment [3] (setting [4]) it was 51.21. Moreover, the results for the 100 ave in experiment [1] (uniprot O14867), in experiment [2] and in experiment [3] (uniprot O00567) were 53.8, 12.33 and 27.36, respectively. Moreover, the “500 Max” value came to 85.3 in experiment [1] (uniprot O14867), 44.06 in experiment [2] and 68.12 in experiment [3] (setting [4]). Also, the 500 ave is given as 85.3 in experiment [1] (uniprot O14867), 40.875 in experiment [2] and 68.12 in experiment [3] (uniprot O00567).
